From patent US20120100077A1, “MIXTURE OF AMPHIPATHIC MOLECULES AND METHOD FOR MODIFYING CELL MEMBRANES BY MEANS OF FUSION” (priority 2009, published 2012) come the findings set out here.

Series [1] relates to cell membrane. In words: Fusion quality of R groups bound to amphipathic molecules B in the fusion mixture.
Protocol: (§1) After homogenization in the organic solvent, the organic solvent should be removed.
(§2) The dried mixture is taken up in an aqueous buffer solution, preferably having a pH value of 7, and is homogenized once more. Advantageously a liposome forms, which comprises the molecule types that were added. Molecules of molecule types E and F can likewise be added.
(§3) According to the actual method, the fusion mixture is diluted with a cell medium, e.g. 1:100 (mixture:cell medium v/v), homogenized once more, and added to the cells.
(§4) To this end it is sufficient for the cells to be brought in contact with the mixture for approximately 1 to 60 minutes, and in the case of tissue samples, for 60 to 120 minutes, for example. A cell washing step should then be incorporated.
The subject of series [2] is cell membrane.
Protocol: as §1, §2, §3, §4
Where [3] appears, read: R group covalently bound to lipid (molecule type B).

Where two headings read alike, the source gives them in different places.

For the molecule `CCCCCCCCCCCCCCCCCCN1C(=CC=Cc2oc3ccccc3[n+]2CCCCCCCCCCCCCCCCCC)Oc2ccccc21.[O-][Cl+3]([O-])([O-])[O-]` [DiO per se, DiOC18(3)3,3′-dioctadecyloxacarbocyanine perchlorate], the Fusion quality in the series on cell membrane [1] (setting [3]) is 1.
Consider `CCCCCCCC/C=C\CCCCCCCC(=O)OC[C@H](COP(=O)(O)OCCNS(=O)(=O)c1ccc(-c2c3ccc(N(CC)CC)cc3[o+]c3cc(N(CC)CC)ccc23)c(S(=O)(=O)[O-])c1)OC(=O)CCCCCCC/C=C\CCCCCCCC.CCN(CC)CC` [LR, Lissamine rhodamine B 1,2-diolenoyl-sn-glycero-3-phosphoethanolamine, (triethylammonium salt)], for which the Fusion quality in the series with cell membrane [1] came to 1.
Still for that read-out and setting: the same measure for `CCCCCCCC/C=C\CCCCCCCC(=O)OC[C@H](COP(=O)(O)OCCNc1ccc([N+](=O)[O-])c2nonc12)OC(=O)CCCCCCC/C=C\CCCCCCCC.CCN(CC)CC` [NBD, N-(7-nitrobenz-2-oxa-1,3-diazol-4-yl)-1,2-diolenoyl-sn-glycero-3-phosphoethanolamine (triethylammonium salt)]: 2.
As for `CCCCCCCC/C=C\CCCCCCCC(=O)OC[C@H](COP(=O)(O)OCCNC(=O)OCCOCCOCCOCCOCCOCCOCCOCCOCCOCCOCCOCCOCCOCCOCCOCCOCCOCCOCCOCCOCCOCCOCCOCCOCCOCCOCCOCCOCCOCCOCCOCCOCCOCCOCCOCCOCCOCCOCCOCCOCCOCCOCCOCCOCCOC)OC(=O)CCCCCCC/C=C\CCCCCCCC.N` [PEG(2000), 1,2-dioleoyl-sn-glycero-3-phosphoethanolamine-N-[methoxy(polyethylene glycol)-2000](ammonium salt)], in the series on cell membrane [1] (setting [3]), the Fusion quality is given as 6 and the “toxic” value is given as “toxic”.
Regarding `CCCCCCCC/C=C\CCCCCCCC(=O)OC[C@H](COP(=O)(O)OCCNC(=O)CCCCCNC(=O)CCCCC1SCC2NC(=O)NC21)OC(=O)CCCCCCC/C=C\CCCCCCCC` (stereo partly drawn) [capBiotin, 1,2-dioleoyl-sn-glycero-3-phosphoethanolamine-N-cap-biotin], in the series on cell membrane [1], the Fusion quality is recorded as 6 and the “function as fusion-inducing molecule type B” value is “do not, however, function”.
As for `CCCCC/C=C\C/C=C\C/C=C\C/C=C\CCCC(=O)O[C@H](COC(=O)CCCCCCCCCCCCCCCCC)COP(=O)([O-])O[C@H]1C(O)C(O)C(O)[C@@H](O)C1O.[Na+]` (stereo partly drawn) [inositol, L-α-phosphatidylinositol (sodium salt)], in the series on cell membrane [1], the “function as fusion-inducing molecule type B” value is reported as “non-functional”. For the same molecule, in the series with cell membrane [1] (setting [3]), the Fusion quality came to 6 and the “toxic” value is “toxic”.
For the molecule `c1cc2ccc3cccc4ccc(c1)c2c34` [pyrene], the “toxic” value in the series on cell membrane [2] is 5(toxic).
Turning to “Texas Red 1,2-dihexadecanoyl-sn-glycero-3-phosphoethanolamine (triethylammonium salt) [Texas-Red]”, in the series on cell membrane [1] (setting [3]), the Fusion quality amounted to 1.
